Like-named read-outs stand apart in the source and are kept apart here.
Columns and labels:
[1] = target: T1, Human Recombinant Gelatinase B (MMP-9) (Homo sapiens, UniProt P14780); test: P218 quenched fluorescence (microfluorometric profiling) assay, MMP-9; assay type: biochemical
T1 construct: made in house
Description: The assay was run with each invention compound and the three MMPs, Mmp-3, MMP-9 and MMP-2, analyzed in parallel, adapted as follows for a 96-well microtiter plate and a Hamilton AT® workstation. […] P218 is currently being produced BACHEM exclusively for Bayer. P218 has the structure: […] The enzyme was dialyzed against the same buffer to remove the APMA. Hamiltion Microlab AT Plus: The MMP-Profiling Assay is performed robotically on a Hamilton MicroLab AT Plus®. The Hamilton is programmed to: (1) serially dilute up to 11 potential inhibitors automatically from a 2.5 mM stock in 100% DMSO; (2) distribute substrate followed by inhibitor into a 96 well Cytofluor plate; and (3) add a single enzyme to the plate with mixing to start the reaction. Subsequent plates for each additional enzyme are prepared automatically by beginning the program at the substrate addition point, remixing the diluted inhibitors and beginning the reaction by addition of enzyme. In this way, all MMP assays were done using the same inhibitor dilutions. Millipore Cytofluor II. […] MMP Microfluorometric Profiling Assay. […] The Hamilton is programmed to serially dilute up to 11 compounds from a 2.5 mM stock (100% DMSO) to 10× the final compounds concentrations in the assay. Initially, the instrument delivers various amounts of microfluoromentric reaction buffer (MRB) to a 96 tube rack of 1 ml Marsh dilution tubes. The instrument then picks up 20 μl of inhibitor (2.5 mM) from the sample rack and mixes it with a buffer in row A of the Marsh rack, resulting in a 50 μM drug concentration. The inhibitors are then serially diluted to 10, 5, 1, 0.2, 0.05 and 0.01 μM. […] The instrument re-mixes and loads 14.5 μl of diluted compound from rows A to G in the Marsh rack to corresponding rows in the microtiter plate. (Row H represents the "background" row and 39.5 μl of MRB is delivered in placed of drug or enzyme). […] After addition and mixing of the enzyme, the plate is covered and incubated for 25 min. at 37° C. Additional enzymes are tested in the same manner by beginning the Hamilton program with the distribution of P218 substrate to the microtiter plate, followed by re-mixing and distribution of the drug from the same Marsh rack to the microtiter plate. The second (or third, etc.) MMP to be tested is then distributed from a reagent rack to the microtiter plate with mixing, prior to covering and incubation. This is repeated for all additional MMP's to be tested. IC50 and Ki Determination in Microfluorometric Assay: Data generated on the Cytofluor II is copied from an exported ".CSV" file to a master Excel spreadsheet. […] The percent inhibition is determination for each drug concentration by comparing the amount of hydrolysis (fluorescence units generated over 25 minutes of hydrolysis) of wells containing compound with the "enzyme only" wells in column 1. Following subtraction of the background the percent inhibition was calculated as: ((Control values-Treated values)/Control values)×100 Percent inhibitions were determined for inhibitor concentrations of 5, 1, 0.5, 0.1, 0.02, 0.005 and, 0.001 μM of drug. Linear regression analysis of percent inhibition versus log inhibitor concentration was used to obtain IC50 values.

[2] = target: T2, Recombinant Human CHO Stromelysin (MMP-3) (Homo sapiens, UniProt P08254); test: P218 quenched fluorescence (microfluorometric profiling) assay, MMP-3; assay type: biochemical
T2 construct: made in house; host or cells: CHO cells
Description: P218 is a synthetic substrate containing a 4-acetyl-7-methoxycoumarin (MCA) group in the N-terminal position and a 3-[2, 4-dinitrophenyl]-L-2,3-diaminopropionyl (DPA) group internally.
The reaction was stopped by addition of soybean trypsin inhibitor (SBTI; 5:1 w/w to trypsin concentration). This activation protocol results in the formation of 45 kDa active MMP-3, which still contains the C-terminal portion of the enzyme.
Microfluorometric Reaction Buffer (MRB): Dilution of test compounds, enzymes, and P218 substrate for the microfluorometric assay were made in microfluorometric reaction buffer consisting of 50 mM 2-(N-morpholino)ethanesulfonic acid (MES) at pH 6.5 with 10 mM CaCl2, 150 mM NaCl, 0.005% Brij-35 and 1% DMSO.
MMP Microfluorometric Profiling Assay. The assay is done with a final substrate concentration of 6 μM P218 and approximately 0.5 to 0.8 nM MMP with variable drug concentrations. The Hamilton is programmed to serially dilute up to 11 compounds from a 2.5 mM stock (100% DMSO) to 10× the final compounds concentrations in the assay. Initially, the instrument delivers various amounts of microfluoromentric reaction buffer (MRB) to a 96 tube rack of 1 ml Marsh dilution tubes. The instrument then picks up 20 μl of inhibitor (2.5 mM) from the sample rack and mixes it with a buffer in row A of the Marsh rack, resulting in a 50 μM drug concentration. The inhibitors are then serially diluted to 10, 5, 1, 0.2, 0.05 and 0.01 μM. […] The instrument re-mixes and loads 14.5 μl of diluted compound from rows A to G in the Marsh rack to corresponding rows in the microtiter plate. (Row H represents the "background" row and 39.5 μl of MRB is delivered in placed of drug or enzyme). […] (The enzyme reservoir is pretreated with 1% BSA in 50 mM Tris, pH 7.5 containing 150 mM NaCl for 1 hour at room temp., followed by extensive H2 O washing and drying at room temp.).
IC50 and Ki Determination in Microfluorometric Assay: Data generated on the Cytofluor II is copied from an exported ".CSV" file to a master Excel spreadsheet. Data from several different MMPs (one 96 well plate per MMP) were calculated simultaneously. The percent inhibition is determination for each drug concentration by comparing the amount of hydrolysis (fluorescence units generated over 25 minutes of hydrolysis) of wells containing compound with the "enzyme only" wells in column 1.

[3] = target: T3, Human Recombinant Gelatinase A (MMP-2) (Homo sapiens, UniProt P08253); test: P218 quenched fluorescence (microfluorometric profiling) assay, MMP-2; assay type: biochemical
T3 sequence (P08253 110-660): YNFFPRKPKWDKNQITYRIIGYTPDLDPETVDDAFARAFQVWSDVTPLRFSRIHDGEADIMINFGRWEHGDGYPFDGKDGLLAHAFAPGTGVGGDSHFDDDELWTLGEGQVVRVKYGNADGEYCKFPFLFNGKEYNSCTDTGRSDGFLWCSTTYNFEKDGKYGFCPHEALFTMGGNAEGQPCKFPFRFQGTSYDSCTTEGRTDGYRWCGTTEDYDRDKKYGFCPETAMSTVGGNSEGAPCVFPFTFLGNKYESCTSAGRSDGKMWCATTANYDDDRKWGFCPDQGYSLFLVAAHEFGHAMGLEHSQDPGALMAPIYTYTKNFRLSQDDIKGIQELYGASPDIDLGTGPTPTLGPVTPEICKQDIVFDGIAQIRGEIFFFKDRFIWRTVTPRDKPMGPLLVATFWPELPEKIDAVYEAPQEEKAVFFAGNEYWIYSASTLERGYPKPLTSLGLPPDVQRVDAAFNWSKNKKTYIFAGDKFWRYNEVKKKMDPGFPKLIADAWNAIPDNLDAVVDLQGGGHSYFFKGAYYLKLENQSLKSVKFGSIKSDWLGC

[4] = fenbufen analogs, Child, et al.; cited from earlier work
[5] = system: human ovarian carcinoma xenografts; conditions: batimastat given intraperitoneally; cited from earlier work
[6] = system: human colon tumor; conditions: intraperitoneally; orthotopic model in nude mice; cited from earlier work
[7] = P218 6 μM, pH 6.5, 25 min, 37° C., read-out: MMP-9 Ki
[8] = P218 6 μM, pH 6.5, 25 min, 37° C., read-out: MMP-3 Ki
[9] = P218 6 μM, pH 6.5, 25 min, 37° C., read-out: MMP-2 Ki

T1 sequence (P14780 107-707 limits assumed): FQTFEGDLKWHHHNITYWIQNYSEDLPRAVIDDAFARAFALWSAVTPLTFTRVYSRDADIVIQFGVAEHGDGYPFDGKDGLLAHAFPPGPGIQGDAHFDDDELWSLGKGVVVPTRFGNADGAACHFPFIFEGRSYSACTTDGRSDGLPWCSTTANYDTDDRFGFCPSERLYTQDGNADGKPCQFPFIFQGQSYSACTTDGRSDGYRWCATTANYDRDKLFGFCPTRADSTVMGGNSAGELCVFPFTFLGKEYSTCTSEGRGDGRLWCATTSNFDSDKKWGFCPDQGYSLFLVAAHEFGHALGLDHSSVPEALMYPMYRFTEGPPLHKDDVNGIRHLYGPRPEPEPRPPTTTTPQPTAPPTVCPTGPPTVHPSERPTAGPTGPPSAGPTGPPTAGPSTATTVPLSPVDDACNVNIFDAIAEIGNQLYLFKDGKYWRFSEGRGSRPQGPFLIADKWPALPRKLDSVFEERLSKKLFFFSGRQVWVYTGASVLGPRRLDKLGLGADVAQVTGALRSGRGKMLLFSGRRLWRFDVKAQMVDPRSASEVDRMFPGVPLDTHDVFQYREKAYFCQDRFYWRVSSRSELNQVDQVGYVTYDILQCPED
T2 sequence (P08254 100-477): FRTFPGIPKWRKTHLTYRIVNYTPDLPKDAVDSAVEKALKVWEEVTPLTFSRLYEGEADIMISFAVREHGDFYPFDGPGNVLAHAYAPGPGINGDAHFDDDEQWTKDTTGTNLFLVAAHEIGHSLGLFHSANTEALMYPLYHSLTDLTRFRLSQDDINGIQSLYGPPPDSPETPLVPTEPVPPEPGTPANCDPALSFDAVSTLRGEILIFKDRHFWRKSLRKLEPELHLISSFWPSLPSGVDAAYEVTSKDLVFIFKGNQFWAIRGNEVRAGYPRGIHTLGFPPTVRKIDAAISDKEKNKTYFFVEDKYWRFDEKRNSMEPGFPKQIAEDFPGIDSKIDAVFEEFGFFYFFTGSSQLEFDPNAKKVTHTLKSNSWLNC

Row | Compound | Ki [1, 7] | Ki [2, 8] | Ki [3, 9] | further results
1 | O=C(CC(CCc1ccccc1C(=O)NCCN1CCOCC1)C(=O)O)c1ccc(-c2ccc(Cl)cc2)cc1 (stereo not drawn) [Compound XXV, 4'-chloro-α-[2 [2-[[[2-(4-morpholinyl)ethyl]amino]carbonyl]phenyl]ethyl]-γ-oxo-[1,1'-biphenyl]-4-butanoic acid] | 744 nM | 371 nM | 51.4 nM | –
2 | O=C(O)CCNC(=O)c1cccc(CCC(CC(=O)c2ccc(-c3ccc(Cl)cc3)cc2)C(=O)O)c1 (stereo not drawn) [Compound XXVI, α-[2-[3-[[(2-carboxyethyl)amino]carbonyl]phenyl]ethyl]-4'-chloro-γ-oxo-[1,1'-biphenyl]-4-butanoic acid] | 706 nM | 178 nM | 76.6 nM | –
3 | O=C(CC(CCc1ccccc1C(=O)N1CCCCC1)C(=O)O)c1ccc(-c2ccc(OCc3ccccc3)cc2)cc1 (centres unmarked) [Compound XXXII] | 167 nM | 14.8 nM | – | Ki [3]: 13 nM
4 | O=C(CC(CCc1ccccc1C(=O)N1CCOCC1)C(=O)O)c1ccc(-c2ccc(Cl)cc2)cc1 (centres unmarked) [II] | – | – | 12.1 nM | Ki [1]: 323 nM; Ki [2]: 122 nM
5 | O=C(O)CC(C(=O)c1ccc(-c2ccccc2)cc1)c1ccccc1 (centres unmarked) [LXXVII] | – | – | – | activity as anti-inflammatory analgesic agents [4]: inactive
6 | CCOC(=O)CCNC(=O)c1ccccc1CCC(CC(=O)c1ccc(-c2ccc(Cl)cc2)cc1)C(=O)O (centres unmarked) [VII] | – | – | – | Ki [1]: 478 nM; Ki [2]: 131 nM; Ki [3]: 27.1 nM
7 | O=C(CC(CCc1cccc(C(=O)N2CCCCC2)c1)C(=O)O)c1ccc(-c2ccc(Cl)cc2)cc1 (stereo not drawn) [XI, 4'-chloro-γ-oxo-α-[2-[3-(1-piperidinylcarbonyl)phenyl]ethyl]-[1,1'-biphenyl]-4-butanoic acid] | 58.1 nM | 34.4 nM | 10.3 nM | –
8 | O=C(CC(C(=O)O)c1ccccc1)c1ccc(-c2ccccc2)cc1 (centres unmarked) [XLIX] | – | – | – | activity as anti-inflammatory analgesic agents [4]: inactive
9 | CC(CC(=O)c1ccc(-c2ccccc2)cc1)C(=O)O (centres unmarked) [XLVII] | – | – | – | activity as anti-inflammatory analgesic agents [4]: inactive
10 | O=C(CC(CCc1ccc(C(=O)N2CCOCC2)cc1)C(=O)O)c1ccc(-c2ccc(Cl)cc2)cc1 (stereo not drawn) [XVII, 4'-chloro-α-[2-[4-(4-morpholinylcarbonyl)phenyl]ethyl]-γ-oxo-[1,1'-biphenyl]-4-butanoic acid] | – | – | 53.6 nM | Ki [1]: 606 nM; Ki [2]: 236 nM
11 | O=C(CC(CCc1ccc(C(=O)NCCN2CCOCC2)cc1)C(=O)O)c1ccc(-c2ccc(Cl)cc2)cc1 (centres unmarked) [XXIX] | – | – | 81.4 nM | Ki ([1]; read-out: MMP-9 Ki, P218 6 μM, pH 6.5, 25 min, 37° C.): 449 nM; Ki ([2]; read-out: MMP-3 Ki, P218 6 μM, pH 6.5, 25 min, 37° C.): 465 nM
12 | O=C(CC(CCc1cccc(C(=O)NCCN2CCOCC2)c1)C(=O)O)c1ccc(-c2ccc(Cl)cc2)cc1 (stereo not drawn) [XXVII, 4'-chloro-α-[2-[3-[[[2-(-morpholinyl)ethyl]amino]carbonyl]phenyl]ethyl]-γ-oxo-[1,1'-biphenyl]-4-butanoic acid] | 786 nM | 353 nM | – | Ki [3]: 48 nM
13 | CNC(=O)[C@H](Cc1ccccc1)NC(=O)[C@H](CC(C)C)[C@H](CSc1cccs1)C(=O)NO [batimastat] | – | – | – | survival of mice bearing human ovarian carcinoma xenografts [5]: prolongs the survival; human colon tumor growth and spread [6]: inhibits human colon tumor growth and spread

— patent US5804581A, “Inhibition of matrix metalloproteases by substituted phenalkyl compounds” (Bayer Corporation, priority 1997, dated 1998)
